According to ChEMBL document CHEMBL1134219, “Gamma-lactone-Functionalized antitumoral acetogenins are the most potent inhibitors of mitochondrial complex I” (Bioorg Med Chem Lett, 2001):
Blank lines part the entries; values can stand above or below the molecule they belong to.

Experiments:
Bos taurus [1] = species: Bos taurus; test: Relative inhibition of NADH-ubiquinone oxidoreductase (DB) and NADH oxidase activity; type: functional
Bos taurus [2] = species: Bos taurus; test: Relative NADH oxidase activity compared to Laherradurin and 36-dihydroisorolliniastatin-1; type: functional
Bos taurus [3] = species: Bos taurus; test: Inhibition of NADH-ubiquinone oxidoreductase using decylubiquinone (DB) acceptor; type: functional
[4] = biological target: Mitochondrial complex I; NADH oxidoreductase (Bos taurus, UniProt P25708+P52505); test: Inhibition of NADH oxidase activity in sub-mitochondrial particles from bovine heart; type: functional
Chain of Mitochondrial complex I; NADH oxidoreductase (P25708 21-464 limits assumed, other chains not shown): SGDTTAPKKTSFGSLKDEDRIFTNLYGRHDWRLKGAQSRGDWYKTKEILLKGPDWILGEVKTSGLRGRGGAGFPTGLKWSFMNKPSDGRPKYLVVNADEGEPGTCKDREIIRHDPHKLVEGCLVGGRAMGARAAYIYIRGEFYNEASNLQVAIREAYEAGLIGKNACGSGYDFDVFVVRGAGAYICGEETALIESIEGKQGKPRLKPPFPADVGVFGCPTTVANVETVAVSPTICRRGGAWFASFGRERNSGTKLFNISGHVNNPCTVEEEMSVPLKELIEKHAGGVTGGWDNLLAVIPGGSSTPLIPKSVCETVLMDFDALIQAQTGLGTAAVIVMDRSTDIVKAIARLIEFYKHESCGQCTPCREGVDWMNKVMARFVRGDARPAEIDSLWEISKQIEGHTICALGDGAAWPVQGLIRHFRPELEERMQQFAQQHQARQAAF

[5] = Potency relative to NADH oxidase activity of and 36-dihydroisorolliniastatin-1
[6] = Potency relative to NADH oxidase activity of Laherradurin

SMILES: CCCCCCCCCC[C@H](O)[C@H]1CC[C@H]([C@H]2CC[C@H]([C@H](O)CCCCCCCCCCC3C(=O)O[C@@H](C)[C@@H]3O)O2)O1 (stereo not given in full)
Ratio (Bos taurus [1]): 3.4
Relative potency (Bos taurus [2]): 1.2
IC50 (Bos taurus [3]): 0.72 nM
IC50 [4]: 0.21 nM

SMILES: CCCCCCCCCC[C@@H](O)[C@@H]1CC[C@@H]([C@@H](O)CC[C@H](O)[C@@H]2CC[C@@H](CCCCCCC[C@H]3CC(CC(C)O)C(=O)O3)O2)O1 (stereo not given in full)
Ratio (Bos taurus [1]): 1.9
Relative potency (Bos taurus [2]): 13.8
IC50 (Bos taurus [3]): 4.64 nM
IC50 [4]: 2.48 nM

SMILES: CCCCCCCCCC[C@@H](O)[C@@H]1CC[C@@H]([C@@H](O)CC[C@H](O)[C@@H]2CC[C@@H](CCCCCCC[C@@H](O)CC3(O)C(=O)O[C@H](C)[C@H]3O)O2)O1 (single isomer, unassigned)
Ratio (Bos taurus [1]): 4.6
Relative potency (Bos taurus [2]): 47.1
IC50 (Bos taurus [3]): 38.3 nM
IC50 [4]: 8.47 nM

SMILES: CCCCCCCCCC[C@@H](O)[C@@H]1CC[C@@H]([C@@H](O)CC[C@H](O)[C@@H]2CC[C@@H](CCCCCCC[C@@H](O)CC3=C[C@H](C)OC3=O)O2)O1
Ratio (Bos taurus [1]): 2.8
Relative potency (Bos taurus [2]): 10.2
IC50 (Bos taurus [3]): 5.18 nM
IC50 [4]: 1.84 nM

IC50 (Bos taurus [3]): 1.42 nM
SMILES: CCCCCCCCCC[C@@H](O)[C@@H]1CC[C@@H]([C@@H](O)CC[C@H](O)[C@@H]2CC[C@@H](CCCCCCC[C@H]3CC(C/C(C)=N/O)C(=O)O3)O2)O1 (stereo not given in full)
Ratio (Bos taurus [1]): 2.6
Relative potency (Bos taurus [2]): 3
IC50 [4]: 0.54 nM

SMILES: CCCCCCCCCC[C@H](O)[C@H]1CC[C@@H]([C@@H]2CC[C@H]([C@H](O)CCCCCCCCCC[C@H]3CC(CC(C)=O)C(=O)O3)O2)O1 (stereo not given in full)
Ratio (Bos taurus [1]): 3.7
Relative potency (Bos taurus [2]): 1.8
IC50 (Bos taurus [3]): 1.21 nM
IC50 [4]: 0.33 nM

SMILES: CCCCCCCCCC[C@H](O)[C@H]1CC[C@@H]([C@@H]2CC[C@H]([C@H](O)CCCCCCCCCC[C@@H](O)CC3C[C@H](C)OC3=O)O2)O1 (stereo not given in full)
Ratio (Bos taurus [1]): 1.3
Relative potency (Bos taurus [2]): 2.4
IC50 (Bos taurus [3]): 0.57 nM
IC50 [4]: 0.43 nM

SMILES: CCCCCCCCCC[C@@H](O)[C@@H]1CC[C@@H]([C@@H](O)CC[C@H](O)[C@@H]2CC[C@@H](CCCCCCC[C@@H](O)CC3C[C@H](C)OC3=O)O2)O1 (stereo not given in full)
Ratio (Bos taurus [1]): 2.7
Relative potency (Bos taurus [2]): 6.8
IC50 (Bos taurus [3]): 3.32 nM
IC50 [4]: 1.22 nM

SMILES: CCCCCCCCCC[C@@H](O)[C@@H]1CC[C@@H]([C@@H](O)CC[C@H](O)[C@@H]2CC[C@@H](CCCCCCC[C@H]3CC(CC(C)=O)C(=O)O3)O2)O1 (stereo not given in full)
Ratio (Bos taurus [1]): 3.5
Relative potency (Bos taurus [2]): 4.6
IC50 (Bos taurus [3]): 2.88 nM
IC50 [4]: 0.83 nM

IC50 (Bos taurus [3]): 0.22 nM
SMILES: CCCCCCCCCC[C@H](O)[C@H]1CC[C@@H]([C@@H]2CC[C@H]([C@H](O)CCCCCCCCCC[C@H]3CC(C/C(C)=N/O)C(=O)O3)O2)O1 (stereo not given in full)
Ratio (Bos taurus [1]): 1
Relative potency (Bos taurus [2]): 1.3
IC50 [4]: 0.23 nM

SMILES: CCCCCCCCCC[C@H](O)[C@H]1CC[C@H]([C@H]2CC[C@H]([C@H](O)CCCCCCCCCCCCC3C(=O)O[C@@H](C)[C@@H]3O)O2)O1 (stereo not given in full) [LAHERRADURIN]
Relative potency [5]: 1
Ratio (Bos taurus [1]): 1.6
IC50 (Bos taurus [3]): 0.29 nM
IC50 [4]: 0.18 nM

SMILES: CCCCCCCCCC[C@H](O)[C@H]1CC[C@@H]([C@@H]2CC[C@H]([C@H](O)CCCCCCCCCC[C@@H](O)CC3=C[C@H](C)OC3=O)O2)O1 [rolliniastatin-1]
Ratio (Bos taurus [1]): 1.2
Relative potency (Bos taurus [2]): 3.3
IC50 (Bos taurus [3]): 0.74 nM

SMILES: CCCCCCCCCC[C@H](O)[C@H]1CC[C@@H]([C@@H]2CC[C@H]([C@H](O)CCCCCCCCCC[C@H]3CC(CC(C)O)C(=O)O3)O2)O1 (stereo not given in full)
Ratio (Bos taurus [1]): 1.2
IC50 (Bos taurus [3]): 0.21 nM
IC50 [4]: 0.18 nM
Relative potency [6]: 1

SMILES: CCCCCCCCCC[C@H](O)[C@H]1CC[C@@H]([C@@H]2CC[C@H]([C@H](O)CCCCCCCCCC[C@@H](O)CC3(O)C(=O)O[C@@H](C)[C@H]3O)O2)O1 (single isomer, unassigned)
Ratio (Bos taurus [1]): 2.7
Relative potency (Bos taurus [2]): 1.2
IC50 (Bos taurus [3]): 0.56 nM
IC50 [4]: 0.21 nM
